This note sets out measurements from patent publication US8471005B2 (Cephalon, Inc., priority 2008, dated 2013).

One assay deals with T1, ALK (Homo sapiens, UniProt Q9UM73).
T1 construct: host or cells: baculovirus expression system
Kind of assay: ALK Kinase Assay (ELISA/TRF, PLC-γ substrate). The note with it: read-out: ALK Potency. Type of assay: biochemical. The gist of the method: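 PLC-γ substrate coated at 10 μg/mL in TBS; reaction started with 30 ng/ml ALK, run 15 min at 37° C. Phosphoproduct detected by TRF with Eu-N1-labeled PT66 anti-phosphotyrosine antibody. IC50 from sigmoidal variable-slope fit of percent inhibition versus log concentration.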

The next assay addresses T2, JAK2 (Homo sapiens, UniProt O60674).
T2 construct: host or cells: baculovirus expression system
Kind of assay: Recombinant Human JAK2 Kinase Assay (TRF). Type of assay: biochemical. The note with it: read-out: JAK2 Potency. The essentials:
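Europium-labelled PY100 antibody reported tyrosine phosphorylation of a Neutravidin-captured biotinyl 15-mer peptide by JAK2 (baculovirus-expressed, 15 ng/ml). Conditions: 20 mM HEPES pH 7.2, 0.2 μM ATP, 1 mM MnCl2, 0.1% BSA, DMSO 2.5% final, 20 min at room temperature.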

Where [1] appears, read: ALK kinase inhibition, 1 μM ATP.
Where [2] appears, read: JAK2 kinase inhibition, 0.2 μM ATP.

Where two headings read alike, the source gives them in different places. Where only a bound is given, the exact number is not on record here.

T2 sequence (O60674 whole entry): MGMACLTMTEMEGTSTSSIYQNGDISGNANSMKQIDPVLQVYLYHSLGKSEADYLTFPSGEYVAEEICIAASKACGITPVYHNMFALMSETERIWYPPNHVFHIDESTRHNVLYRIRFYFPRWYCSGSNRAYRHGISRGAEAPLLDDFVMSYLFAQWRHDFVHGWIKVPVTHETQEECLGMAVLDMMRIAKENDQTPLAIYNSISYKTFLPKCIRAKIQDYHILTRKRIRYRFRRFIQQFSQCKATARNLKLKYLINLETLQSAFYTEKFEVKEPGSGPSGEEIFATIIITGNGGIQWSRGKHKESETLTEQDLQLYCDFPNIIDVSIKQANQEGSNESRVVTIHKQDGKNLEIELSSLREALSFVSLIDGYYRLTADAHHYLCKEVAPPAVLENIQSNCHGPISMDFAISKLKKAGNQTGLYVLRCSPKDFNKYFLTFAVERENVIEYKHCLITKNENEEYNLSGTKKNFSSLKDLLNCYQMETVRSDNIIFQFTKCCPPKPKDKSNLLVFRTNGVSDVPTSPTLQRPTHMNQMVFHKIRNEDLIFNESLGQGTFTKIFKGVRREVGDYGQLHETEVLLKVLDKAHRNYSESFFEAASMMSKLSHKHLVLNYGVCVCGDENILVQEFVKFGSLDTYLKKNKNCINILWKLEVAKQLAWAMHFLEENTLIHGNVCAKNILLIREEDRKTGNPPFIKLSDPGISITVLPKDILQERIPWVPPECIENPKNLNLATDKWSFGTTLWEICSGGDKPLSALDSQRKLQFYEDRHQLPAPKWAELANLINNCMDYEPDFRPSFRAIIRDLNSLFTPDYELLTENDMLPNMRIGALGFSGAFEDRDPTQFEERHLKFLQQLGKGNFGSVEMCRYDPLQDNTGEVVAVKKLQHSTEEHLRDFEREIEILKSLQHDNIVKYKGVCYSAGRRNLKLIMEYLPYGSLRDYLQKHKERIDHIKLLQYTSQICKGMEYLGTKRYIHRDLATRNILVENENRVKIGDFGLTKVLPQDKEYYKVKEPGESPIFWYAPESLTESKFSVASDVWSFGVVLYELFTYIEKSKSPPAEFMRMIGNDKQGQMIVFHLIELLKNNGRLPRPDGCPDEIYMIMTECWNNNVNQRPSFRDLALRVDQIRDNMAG
T1 sequence (Q9UM73 19-1620): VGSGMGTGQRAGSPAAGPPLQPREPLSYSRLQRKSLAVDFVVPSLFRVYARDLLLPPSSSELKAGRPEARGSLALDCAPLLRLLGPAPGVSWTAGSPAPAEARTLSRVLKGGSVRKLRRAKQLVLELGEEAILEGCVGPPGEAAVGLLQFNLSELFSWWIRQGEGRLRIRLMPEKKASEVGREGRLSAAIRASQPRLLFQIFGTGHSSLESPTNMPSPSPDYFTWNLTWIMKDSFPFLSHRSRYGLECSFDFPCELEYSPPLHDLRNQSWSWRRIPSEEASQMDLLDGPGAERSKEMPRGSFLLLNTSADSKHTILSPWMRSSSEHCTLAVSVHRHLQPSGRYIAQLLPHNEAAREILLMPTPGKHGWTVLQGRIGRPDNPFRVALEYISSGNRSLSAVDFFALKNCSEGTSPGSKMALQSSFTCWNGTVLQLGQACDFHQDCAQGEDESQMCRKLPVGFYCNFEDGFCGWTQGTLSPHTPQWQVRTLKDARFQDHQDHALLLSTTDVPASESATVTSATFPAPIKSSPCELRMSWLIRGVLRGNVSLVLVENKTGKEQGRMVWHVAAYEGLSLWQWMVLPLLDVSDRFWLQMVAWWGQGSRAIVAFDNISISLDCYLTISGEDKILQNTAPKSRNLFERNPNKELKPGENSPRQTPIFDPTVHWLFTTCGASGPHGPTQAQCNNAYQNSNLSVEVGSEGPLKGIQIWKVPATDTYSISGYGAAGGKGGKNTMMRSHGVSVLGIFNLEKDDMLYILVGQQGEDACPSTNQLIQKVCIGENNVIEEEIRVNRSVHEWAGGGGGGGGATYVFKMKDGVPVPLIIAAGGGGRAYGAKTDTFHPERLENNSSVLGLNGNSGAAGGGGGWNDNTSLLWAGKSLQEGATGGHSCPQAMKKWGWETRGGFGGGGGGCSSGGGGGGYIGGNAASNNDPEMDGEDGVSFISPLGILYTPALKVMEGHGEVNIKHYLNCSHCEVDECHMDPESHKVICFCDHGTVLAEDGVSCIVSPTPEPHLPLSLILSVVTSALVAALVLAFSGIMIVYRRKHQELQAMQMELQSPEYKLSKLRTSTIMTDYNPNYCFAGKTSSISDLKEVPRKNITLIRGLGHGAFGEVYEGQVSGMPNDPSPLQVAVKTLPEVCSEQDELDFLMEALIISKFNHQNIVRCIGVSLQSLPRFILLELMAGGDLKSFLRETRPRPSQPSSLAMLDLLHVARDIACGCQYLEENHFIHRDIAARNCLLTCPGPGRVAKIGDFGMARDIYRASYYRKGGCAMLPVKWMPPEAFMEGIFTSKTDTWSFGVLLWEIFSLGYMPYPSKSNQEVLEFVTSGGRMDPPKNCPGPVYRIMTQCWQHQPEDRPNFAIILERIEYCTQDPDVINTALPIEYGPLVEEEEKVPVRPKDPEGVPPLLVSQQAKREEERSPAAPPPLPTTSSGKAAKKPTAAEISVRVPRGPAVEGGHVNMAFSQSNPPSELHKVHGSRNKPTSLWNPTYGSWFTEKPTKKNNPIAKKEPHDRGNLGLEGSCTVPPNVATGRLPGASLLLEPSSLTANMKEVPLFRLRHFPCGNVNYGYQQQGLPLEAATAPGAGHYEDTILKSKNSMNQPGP

For `NC(=O)CN1CCC(c2ccc(Nc3ncc4ccc(-c5cnccn5)n4n3)cc2)CC1` [Example 1564, 2-{4-[4-(7-Pyrazin-2-yl-pyrrolo[2,1-f][1,2,4]triazin-2-ylamino)-phenyl]-piperidin-1-yl}-acetamide], the IC50 is 1000 to 10000 nM on ALK (ALK Kinase Inhibition) and less than 100 nM at JAK2 (JAK2 Kinase Inhibition).

For `COc1ccccc1-c1ccc2cnc(Nc3cccc(C4(O)CCNCC4)c3)nn12` [Example 1565, 4-{3-[7-(2-Methoxy-phenyl)-pyrrolo[2,1-f][1,2,4]triazin-2-ylamino]-phenyl}-piperidin-4-ol], the IC50 at ALK (ALK Kinase Inhibition) and on JAK2 (JAK2 Kinase Inhibition) was less than 100 nM each time.

For the molecule `COc1ccc(-c2ccc3cnc(Nc4cccc(C5CNCCN5)c4)nn23)cn1` (stereo not shown) [Example 1566, [7-(6-Methoxy-pyridin-3-yl)-pyrrolo[2,1-f][1,2,4]triazin-2-yl]-(3-piperazin-2-yl-phenyl)-amine], the IC50 at ALK (ALK Kinase Inhibition) was 1000 to 10000 nM; on JAK2 (JAK2 Kinase Inhibition) it was less than 100 nM.

Consider `CN1CCN(C)C(c2ccc(Nc3ncc4ccc(-c5cccc(S(=O)(=O)NC(C)(C)C)c5)n4n3)cc2)C1` (stereo not shown) [Example 1567, N-tert-Butyl-3-{2-[4-(1,4-dimethyl-piperazin-2-yl)-phenylamino]-pyrrolo[2,1-f][1,2,4]triazin-7-yl}-benzenesulfonamide], for which the results for the IC50 at ALK (ALK Kinase Inhibition) and at JAK2 (JAK2 Kinase Inhibition) were 100 to 1000 nM and less than 100 nM, respectively.

As to `NC(=O)CN1CCC(c2ccc(Nc3ncc4ccc(-c5ncccn5)n4n3)cc2)CC1` [Example 1568, 2-{4-[4-(7-Pyrimidin-2-yl-pyrrolo[2,1-f][1,2,4]triazin-2-ylamino)-phenyl]-piperidin-1-yl}-acetamide], the IC50 at ALK (ALK Kinase Inhibition) is 1000 to 10000 nM; at JAK2 (JAK2 Kinase Inhibition), less than 100 nM.

Regarding `CS(=O)(=O)c1ccc(-c2ccc3cnc(Nc4ccc(C5CCNCC5)cc4)nn23)cc1` [Example 1571, [7-(4-Methanesulfonyl-phenyl)-pyrrolo[2,1-f][1,2,4]triazin-2-yl]-(4-piperidin-4-yl-phenyl)-amine], the IC50 on ALK (ALK Kinase Inhibition) was 100 to 1000 nM; at JAK2 (JAK2 Kinase Inhibition), less than 100 nM.

For `COc1ncccc1-c1ccc2cnc(Nc3ccc4c(c3)CCN(CC(=O)N(C)C)CC4)nn12` [Example 1572], the figures for the IC50 on ALK (ALK Kinase Inhibition) and at JAK2 (JAK2 Kinase Inhibition) were 100 to 1000 nM and less than 100 nM, respectively.

With `CN(C)C(=O)CN1CCc2ccc(Nc3ncc4ccc(Br)n4n3)cc2CC1` [Example 1574], the IC50 was 1000 to 10000 nM at ALK (ALK Kinase Inhibition) and less than 100 nM on JAK2 (JAK2 Kinase Inhibition).

Consider `COc1cncc(-c2ccc3cnc(Nc4ccc5c(c4)CCN(CC(=O)N(C)C)CC5)nn23)c1` [Example 1575], for which the IC50 on ALK (ALK Kinase Inhibition) is 100 to 1000 nM; at JAK2 (JAK2 Kinase Inhibition) it was less than 100 nM.

For the molecule “(7-Pyridin-3-yl-pyrrolo[2,1-f][1,2,4]triazin-2-yl)-[4-(2-pyrrolidin-1-yl-ethoxy)-phenyl]-amine [Example 126]”, the IC50 at ALK (ALK Kinase Inhibition) was 100 to 1000 nM; on JAK2 (JAK2 Kinase Inhibition) it was less than 100 nM.

For the molecule “(S)-1-(4-{4-[7-(4-Chloro-2-methoxy-phenyl)-pyrrolo[2,1-f][1,2,4]triazin-2-ylamino]-3-methoxy-phenyl}-piperazin-1-yl)-propan-2-ol [Example 487]”, the IC50 at ALK (setting [1]) was less than 100 nM; on JAK2 (setting [2]), 100 to 1000 nM.

Take “(±)-1-Fluoro-3-(4-{3-methoxy-4-[7-(2-methoxy-phenyl)-pyrrolo[2,1-f][1,2,4]triazin-2-ylamino]-phenyl}-piperidin-1-yl)-propan-2-ol [Example 825]”: the results for the IC50 on ALK (setting [1]) and on JAK2 (setting [2]) were less than 100 nM and 100 to 1000 nM, respectively.

As for “N-[2-(2-{4-[4-(2-Hydroxy-ethyl)-piperazin-1-yl]-phenylamino}-pyrrolo[2,1-f][1,2,4]triazin-7-yl)-phenyl]-N-methyl-methanesulfonamide [Example 1171]”, the IC50 on ALK (setting [1]) and on JAK2 (setting [2]) was less than 100 nM each time.

Turning to “N-[2-(2-{4-[4-(2-Hydroxy-ethylamino)-piperidin-1-yl]-2-methoxy-phenylamino}-pyrrolo[2,1-f][1,2,4]triazin-7-yl)-phenyl]-N-methyl-methanesulfonamide [Example 798]”, the results for the IC50 at ALK (setting [1]) and at JAK2 (setting [2]) were less than 100 nM and 100 to 1000 nM, respectively.

Consider “N-{2-[2-(1-Methyl-2-oxo-2,3,4,5-tetrahydro-1H-benzo[b]azepin-7-ylamino)pyrrolo[2,1-f][1,2,4]triazin-7-yl]-phenyl}methanesulfonamide [Example 625]”, for which the IC50 on ALK (setting [1]) is 100 to 1000 nM; on JAK2 (setting [2]), less than 100 nM.

On to “N-{2-[2-(2-Oxo-2,3-dihydro-benzooxazol-6-ylamino)pyrrolo[2,1-f][1,2,4]triazin-7-yl]phenyl}methanesulfonamide [Example 629]”, for which the IC50 on ALK (setting [1]) is 100 to 1000 nM; on JAK2 (setting [2]), less than 100 nM.

As for “N-{2-[2-(3,3-Dimethyl-2-oxo-2,3-dihydro-1H-indol-6-ylmethyl)-pyrrolo[2,1-f][1,2,4]triazin-7-yl]-phenyl}-N-methyl-methanesulfonamide [Example 661]”, the values for the IC50 on ALK (setting [1]) and on JAK2 (setting [2]) were 100 to 1000 nM and less than 100 nM, respectively.

For “N-{2-[2-(4-{4-[1-(2-Hydroxy-ethyl)-piperidin-4-yl]-[1,4]diazepan-1-yl}-2-methoxy-phenylamino)-pyrrolo[2,1-f][1,2,4]triazin-7-yl]-phenyl}-N-methyl-methanesulfonamide [Example 802]”, the figures for the IC50 on ALK (setting [1]) and on JAK2 (setting [2]) were less than 100 nM and 1000 to 10000 nM, respectively.

Turning to “N-{2-[2-(4-{4-[(2-Hydroxy-ethyl)-methyl-amino]-piperidin-1-yl}-2-ethoxy-phenylamino)-pyrrolo[2,1-f][1,2,4]triazin-7-yl]-phenyl}-N-methyl-methanesulfonamide [Example 795]”, the IC50 on ALK (setting [1]) was less than 100 nM; at JAK2 (setting [2]), 100 to 1000 nM.

Consider “N-{2-[2-(5,5-Dimethyl-2-oxo-2,3,4,5-tetrahydro-1H-benzo[b]azepin-7-ylamino)pyrrolo[2,1-f][1,2,4]triazin-7-yl}-phenyl]methanesulfonamide [Example 624]”, for which the IC50 on ALK (setting [1]) and at JAK2 (setting [2]) was less than 100 nM each time.

For the molecule “N-{2-tert-Butyl-5-[7-(5-chloro-2-methoxy-phenyl)-pyrrolo[2,1-f][1,2,4]triazin-2-ylamino]-phenyl}-acetamide [Example 305]”, the figures for the IC50 at ALK (ALK Kinase Inhibition) and at JAK2 (JAK2 Kinase Inhibition) were 100 to 1000 nM and less than 100 nM, respectively.

Regarding “[4-(4-Diethylamino-piperidin-1-yl)-phenyl]-[7-(4-methanesulfonyl-phenyl)-pyrrolo[2,1-f][1,2,4]triazin-2-yl]-amine [Example 1136]”, the figures for the IC50 on ALK (setting [1]) and at JAK2 (setting [2]) were 100 to 1000 nM and less than 100 nM, respectively.

As to “[5-Bromo-7-(4-methanesulfonyl-phenyl)-pyrrolo[2,1-f][1,2,4]triazin-2-yl]-(4-morpholin-4-yl-phenyl)-amine [Example 99]”, the IC50 at ALK (ALK Kinase Inhibition) is greater than 10000 nM; at JAK2 (JAK2 Kinase Inhibition), less than 100 nM.

Regarding “[7-(2-Methoxy-phenyl)-pyrrolo[2,1-f][1,2,4]triazin-2-yl]-(2-methyl-1,2,3,4-tetrahydro-isoquinolin-7-yl)-amine [Example 984]”, the IC50 on ALK (setting [1]) was 100 to 1000 nM; at JAK2 (setting [2]) it was less than 100 nM.

On to “[7-(3-Chloro-phenyl)-pyrrolo[2,1-f][1,2,4]triazin-2-yl]-{4-[2-(4-ethyl-piperazin-1-yl)-ethoxy]-phenyl}-amine [Example 93]”, for which the IC50 at ALK (ALK Kinase Inhibition) and at JAK2 (JAK2 Kinase Inhibition) was less than 100 nM in each case.

“[7-(4-Methanesulfonyl-phenyl)-pyrrolo[2,1-f][1,2,4]triazin-2-yl]-(4-morpholin-4-yl-phenyl)-amine [Example 38]”: the IC50 on ALK (ALK Kinase Inhibition) is 100 to 1000 nM; on JAK2 (JAK2 Kinase Inhibition) it was less than 100 nM.
